Counter-ions that a name gives are not always drawn.
How the values were obtained:
Format in all cases: biochemical
c-Raf = target: T1, c-Raf (Homo sapiens, UniProt P04049); assay: c-Raf HTRF assay with 6H-MEK as substrate (dose response); conditions: cloned human c-Raf with EE-tag
T1 construct: made in house; host or cells: baculovirus, High-5 (Hi5) insect cells, co-infected with FLAG-vSrc virus
Procedure: (§1) Kinase Enzyme Inhibition Assay (IC50)
c-Raf HTRF Assay with 6H-MEK as Substrate (Dose Response)
The assay utilizes 6H-MEK as the substrate. Upon c-Raf phosphorylation, phosphorylated 6H-MEK is detected with rabbit anti-phospho-MEK1/2, Eu-labeled anti-rabbit, and APC-labeled anti-6H antibodies.
(§2) Reagents and Instruments:
Enzyme: cloned human c-Raf with EE-tag; phosphorylated (co-expressed with v-src-FLAG in baculovirus Hi5 cells), 0.2 mg/mL (2.74 μM assuming a molecular weight of 73 kD) stored at −15° C.
Substrate: WT full-length 6H-MEK, 4.94 mg/mL (154.4 μM assuming a MW of 32 kD) stored at −15° C.
(§3) Antibodies: Rabbit (α-P-(Ser 217/221)-MEK-1/2 Ab (from Cell Signaling, Cat. #9121B, Lot 14); Eu-(α-rabbit IgG (from Wallac, Cat. # AD0083, Lot 318663, 710 ug/mL, 4.4 μM); (α-6H-SureLight-APC (from Martek, Cat. #AD0059H, Lot E012AB01, 3.03 μM).
(§4) Reader: Envision from PerkinElmer, HTRF reading mode with 412 mirror
(§5) Assay Plate Matrix all-black polypropylene plates (Cat. #4344)
(§6) Others: Weidman 384 polypropylene plates (REMP) for compound plate.
(§7) (1) Prepare Kinase Assay Buffer (KAB): 50 mM HEPES (HyClone) pH7, 10 mM MgCl2, 1 mM DTT, 0.1 mM […], and 0.3 mg/ml BSA.
(§8) (2) Prepare 6H-MEK (150 nM) in KAB. Add 12 μl/well to the assay plate.
(§9) (3) Prepare ATP (66 μM) in KAB.
(§10) (4) Dilute compounds to 2.4 mM and any positive controls to 480 μM in DMSO. Perform 10-point 3× dilution in DMSO. Withdraw 2.5 μl/well of DMSO solution and add to 27.5 μl/well ATP solution in (3).
(§11) (5) Mix, then add 6 μl/well of solution in (4) to the assay plate for a DMSO concentration of 2.1% during MEK phosphorylation.
(6) Prepare c-Raf (12 nM) in KAB.
(7) Add 6 μl/well of KAB in columns 1-2 and 6 μl/well of c-Raf in columns 3-24.
(§12) (8) Incubate at 37° C. for 30 min.
(9) Prepare rabbit (α-P-(Ser 217/221)-MEK-1/2 Ab (1:240 from stock) in AB1: 50 mM HEPES pH7, 0.2 mg/ml BSA, and 43 mM EDTA.
(§13) (10) To stop reaction, add 6 μl/well of solution from (9) to the assay plate and incubate at 37° C. for 30 min.
(11) Prepare Eu-(α-rabbit IgG (9 nM) and (α-6H-SureLight-APC (120 nM) in AB2: 50 mM HEPES pH7 and 0.2 mg/ml BSA.
(§14) (12) Add 6 μl/well of solution from (11) to the assay plate.
(§15) (13) For determining the spectrum cross talk factor, prepare 2 samples following steps (1) to (10). For the blank sample, add 6 μl/well of AB2. For the cross talk factor sample, add 6 μl/well of Eu-anti rabbit IgG (9 nM).
(§16) (14) Incubate at room temperature for 1.5 hours.
(§17) (15) Read HTRF signals at 615 nm and 665 nm on the Envision. Normalize HTRF signals after spectrum cross-talk correction.
Expression and Purification of c-Raf
N terminal EE-tagged c-Raf was expressed in High-5 cells. A five liter culture was co-transfected with virus for EE-c-Raf and FLAG-vSrc at a ratio of 1:2 and harvested after 48 hours. The cell pellet was lysed in TBS containing 5 mM EDTA, 50 mM KF, 20 mM Na pyrophosphate, 20 mM β-glycerolphsphate, 0.5 mM Na VO3, 1% NP-40 (w/v) and Complete Protease Tablets. The lysate was centrifuged at 20,000×g for 1 hour. The supernatant was incubated with 8 ml of anti-EE tag-Protein G Sepharose for 2 hours at 4° C. The resin was then washed with 30 volumes of the above buffer. The c-Raf protein was eluted by incubation with the above buffer containing 100 mg/ml of EE peptide for 1 hour at 4° C. Protein was concentrated using an Amicon Stir Cell with an YM10 membrane. The concentrated protein was dialyzed against TBS containing 1 mM DTT and 30% Glycerol. Protein concentration was determined by the BioRad DC method.
E. coli cells containing the plasmid for the expression of 6H-MEK1 (62-393) were grown in Rich Media and induced with 1 mM IPTG for 24 hours at 22° C. The cell pellet was resuspent in 50 mM potassium phosphate buffer, pH 8.0, 300 mM NaCl, 5 mM MgCl2, 10 mM CHAPS, 2 mM TCEP, and Complete Protease Inhibitor Tablets. Cells were disrupted by sonication. The lysate was cleared by centrifugation at 13,000×g for 45 minutes. […]

b-Raf Wild-Type = target: T2, b-Raf Wild-Type (Homo sapiens, UniProt P15056); assay: b-Raf wild-type HTRF assay with 6H-MEK as substrate (dose response); conditions: recombinant human b-Raf wild-type residues 416-end, GST-tag
T2 construct: recombinant human b-Raf residues 416-end; purchased Upstate 14-530M; host or cells: baculovirus, Sf21 insect cells
T2 sequence (P15056 416-766 limits assumed): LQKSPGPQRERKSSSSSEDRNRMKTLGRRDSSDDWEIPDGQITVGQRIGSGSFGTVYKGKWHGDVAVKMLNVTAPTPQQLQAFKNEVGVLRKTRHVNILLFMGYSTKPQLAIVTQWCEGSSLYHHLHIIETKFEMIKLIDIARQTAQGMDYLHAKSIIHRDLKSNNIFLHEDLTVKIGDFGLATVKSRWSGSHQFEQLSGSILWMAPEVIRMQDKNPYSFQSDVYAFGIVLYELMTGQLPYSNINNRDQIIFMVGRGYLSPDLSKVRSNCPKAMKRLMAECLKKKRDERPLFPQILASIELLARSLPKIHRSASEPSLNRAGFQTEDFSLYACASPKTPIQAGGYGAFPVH
Procedure: as §1
b-Raf Wild-Type HTRF Assay with 6H-MEK as Substrate (Dose Response)
The assay utilizes 6H-MEK as the substrate. Upon b-Raf WT phosphorylation, phosphorylated 6H-MEK is detected with rabbit anti-phospho-MEK1/2, Eu-labeled anti-rabbit, and APC-labeled anti-6H antibodies.
as §2
Enzyme: recombinant human b-Raf residues 416-end with N-terminal GST-tag from Upstate; (expressed by baculovirus in Sf21 insect cells), 0.26 mg/mL (3.87 μM assuming a molecular weight of 67.2 kD) Cat. #14-530M, Lot #25502AU, stored at −80° C.
Substrate: WT full-length 6H-MEK from C. Belunis (5126104), 4.94 mg/mL (154.4 μM assuming a MW of 32 kD) stored at −15° C.
Antibodies: Rabbit (α-P-(Ser 217/221)-MEK-1/2 Ab (from Cell Signaling, Cat. #9121B, Lot 14); Eu-(α-rabbit IgG (from Wallac, Cat. #AD0083, Lot 318663, 710 ug/mL, 4.4 μM); (α-6H-SureLight-APC (from Martek, Cat. #AD0059H, Lot E012AB01, 3.03 μM).
as §4, §5, §6, §7, §8, §9, §10, §11
(6) Prepare b-Raf WT ([…]) in KAB.
(7) Add 6 μl/well of KAB in columns 1-2 and 6 μl/well of b-Raf WT in columns 3-24.
as §12
(9) Prepare rabbit (α-P-(Ser 217/221)-MEK-1/2 Ab (1:200 from stock) in AB1: 50 mM HEPES pH7, 0.2 mg/ml BSA, and 43 mM EDTA.
as §13
(11) Prepare Eu-(α-rabbit IgG (9 nM) and (α-6H-SureLight-APC (180 nM) in AB2: 50 mM HEPES pH7 and 0.2 mg/ml BSA.
as §14, §15, §16, §17

b-Raf V600E Mutant = target: T3, b-Raf V600E Mutant (Homo sapiens, UniProt P15056, V600E); assay: b-Raf V600E mutant HTRF assay with 6H-MEK as substrate (dose response); conditions: recombinant human b-Raf residues 416-end with V600E mutation, GST-tag
T3 construct: recombinant human b-Raf residues 416-end containing a V600E mutation; purchased Upstate 14-5M; host or cells: baculovirus, Sf21 insect cells
T3 sequence (P15056 416-766 V600E): as the sequence (P15056 416-766 limits assumed) above, with V185E counted along it
Text: as §1
b-Raf V600E Mutant HTRF Assay with 6H-MEK as Substrate (Dose Response)
The assay utilizes 6H-MEK as the substrate. Upon b-Raf V600E phosphorylation, phosphorylated 6H-MEK is detected with rabbit anti-phospho-MEK1/2, Eu-labeled anti-rabbit, and APC-labeled anti-6H antibodies.
as §2
Enzyme: recombinant human b-Raf residues 416-end containing a V600E mutation with N-terminal GST-tag from Upstate; (expressed by baculovirus in Sf21 insect cells), 0.26 mg/mL ([…] assuming a molecular weight of 67.3 kD) Cat. #14-5M, Lot #25633AU, stored at −80° C.
Substrate: WT full-length 6H-MEK from C. Belunis (May 26, 2004), 4.94 mg/mL (154.4 μM assuming a MW of 32 kD) stored at −15° C.
as §3, §4, §5, §6, §7, §8, §9
(4) Dilute compounds to 2.4 mM and positive controls to 480 μM in DMSO. Perform 10-point 3× dilution in DMSO. Withdraw 2.5 μl/well of DMSO solution and add to 27.5 μl/well ATP solution in (3).
as §11
(6) Prepare b-Raf V600E ([…]) in KAB.
(7) Add 6 μl/well of KAB in columns 1-2 and 6 μl/well of b-Raf V600E in columns 3-24.
as §12
(9) Prepare rabbit α-P-(Ser 217/221)-MEK-1/2 Ab (1:200 from stock) in AB1: 50 mM HEPES pH7, 0.2 mg/ml BSA, and 43 mM EDTA.
as §13
(11) Prepare Eu-α-rabbit IgG (9 nM) and α-6H-SureLight-APC (180 nM) in AB2: 50 mM HEPES pH7 and 0.2 mg/ml BSA.
as §14, §15, §16, §17

T1 sequence (P04049 whole entry): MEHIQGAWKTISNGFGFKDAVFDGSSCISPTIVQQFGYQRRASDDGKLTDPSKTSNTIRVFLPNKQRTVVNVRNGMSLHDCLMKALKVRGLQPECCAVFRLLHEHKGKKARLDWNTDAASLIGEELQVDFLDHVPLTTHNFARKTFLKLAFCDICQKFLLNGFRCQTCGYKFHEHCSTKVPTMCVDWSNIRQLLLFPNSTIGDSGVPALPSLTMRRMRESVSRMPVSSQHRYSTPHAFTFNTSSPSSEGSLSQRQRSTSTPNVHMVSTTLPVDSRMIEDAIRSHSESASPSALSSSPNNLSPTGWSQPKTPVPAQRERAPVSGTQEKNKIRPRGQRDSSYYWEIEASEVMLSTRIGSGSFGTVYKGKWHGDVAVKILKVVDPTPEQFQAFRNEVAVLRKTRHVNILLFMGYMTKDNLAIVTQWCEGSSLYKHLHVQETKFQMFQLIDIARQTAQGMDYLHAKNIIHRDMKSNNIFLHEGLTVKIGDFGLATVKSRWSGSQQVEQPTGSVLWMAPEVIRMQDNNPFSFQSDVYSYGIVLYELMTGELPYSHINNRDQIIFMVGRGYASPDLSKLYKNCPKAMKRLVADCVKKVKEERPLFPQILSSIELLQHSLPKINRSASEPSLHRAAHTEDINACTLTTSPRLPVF

Structure (SMILES) | IC50 (c-Raf) [nM] | IC50 (b-Raf Wild-Type) [nM] | IC50 (b-Raf V600E Mutant) [nM]
COc1ccc(Cn2nnc(-c3cccc(OCc4csc5c(C(=O)NCCO)cnc(N)c45)c3)n2)cc1 [Example 29, 4-Amino-3-{3-[2-(4-methoxy-benzyl)-2H-tetrazol-5-yl]-phenoxymethyl}-thieno[3,2-c]pyridine-7-carboxylic acid (2-hydroxy-ethyl)-amide] | 231 | 544 | 94
Cn1nnc(-c2cccc(OCc3csc4c(C(=O)NCCO)cnc(N)c34)c2)n1 [Example 33, 4-Amino-3-[3-(2-methyl-2H-tetrazol-5-yl)-phenoxymethyl]-thieno[3,2-c]pyridine-7-carboxylic acid (2-hydroxy-ethyl)-amide] | 341 | 1680 | 258
CCOC(=O)c1cnc(N)c2c(COc3cccc(-c4nnc(C)o4)c3)csc12 [Example 9, 4-Amino-3-[3-(5-methyl-[1,3,4]oxadiazol-2-yl)-phenoxymethyl]-thieno[3,2-c]pyridine-7-carboxylic acid ethyl ester] | 5420 | 12700 | 997
Cc1nnc(-c2cccc(OCc3csc4c(C(=O)NCCO)cnc(N)c34)c2)o1 [Example 10, 4-Amino-3-[3-(5-methyl-[1,3,4]oxadiazol-2-yl)-phenoxymethyl]-thieno[3,2-c]pyridine-7-carboxylic acid (2-hydroxy-ethyl)-amide] | 768 | 1300 | 327
Cc1nnc(-c2ccc(C)c(OCc3csc4c(C(=O)NCCO)cnc(N)c34)c2)o1 [Example 14, 4-Amino-3-[2-methyl-5-(5-methyl-[1,3,4]oxadiazol-2-yl)-phenoxymethyl]-thieno[3,2-c]pyridine-7-carboxylic acid (2-hydroxy-ethyl)-amide trifluoro-acetic acid salt] | 41 | 117 | 17
Cc1ccc(-c2cn(C)nn2)cc1OCc1csc2c(C(=O)NCCO)cnc(N)c12 [Example 24, 4-Amino-3-[2-methyl-5-(1-methyl-1H-[1,2,3]triazol-4-yl)-phenoxymethyl]-thieno[3,2-c]pyridine-7-carboxylic acid (2-hydroxy-ethyl)-amide] | 11.9 | 45 | > 50000
Cc1ccc(-c2nnc(-c3ccc(Cl)cc3)o2)cc1OCc1csc2c(C(=O)NCCO)cnc(N)c12 [Example 49, 4-Amino-3-{5-[5-(4-chloro-phenyl)-[1,3,4]oxadiazol-2-yl]-2-methyl-phenoxy-methyl}-thieno[3,2-c]pyridine-7-carboxylic acid (2-hydroxy-ethyl)-amide trifluoroacetic acid salt] | 17 | 5140 | 920

From patent US7932390B2, “Substituted thieno[3,2-C]pyridine carboxylic acid derivatives” (Hoffman-La Roche Inc., priority 2006, dated 2011)
